Test results reported in EP1208096B1, “SUBSTITUTED PYRIDAZINES AND FUSED PYRIDAZINES WITH ANGIOGENESIS INHIBITING ACTIVITY” (Bayer Corporation, priority 1999, dated 2001).
pIC50: −log10 of the molar value.

Experiments:
[1] = target: T1, NIH3T3 cells expressing the full length KDR receptor (Homo sapiens, UniProt P35968); assay: Cell mechanistic assay - Inhibition of 3T3 KDR phosphorylation; format: cell-based; details: VEGF (30 ng / ml) for 10 minutes after 30 minutes with compound; KDR phosphotyrosine ELISA
T1 construct: NIH3T3 cells expressing the full length KDR receptor; expressed in transfected cells; host or cells: NIH3T3 cells (G418 selection)
T1 sequence (P35968 20-1356): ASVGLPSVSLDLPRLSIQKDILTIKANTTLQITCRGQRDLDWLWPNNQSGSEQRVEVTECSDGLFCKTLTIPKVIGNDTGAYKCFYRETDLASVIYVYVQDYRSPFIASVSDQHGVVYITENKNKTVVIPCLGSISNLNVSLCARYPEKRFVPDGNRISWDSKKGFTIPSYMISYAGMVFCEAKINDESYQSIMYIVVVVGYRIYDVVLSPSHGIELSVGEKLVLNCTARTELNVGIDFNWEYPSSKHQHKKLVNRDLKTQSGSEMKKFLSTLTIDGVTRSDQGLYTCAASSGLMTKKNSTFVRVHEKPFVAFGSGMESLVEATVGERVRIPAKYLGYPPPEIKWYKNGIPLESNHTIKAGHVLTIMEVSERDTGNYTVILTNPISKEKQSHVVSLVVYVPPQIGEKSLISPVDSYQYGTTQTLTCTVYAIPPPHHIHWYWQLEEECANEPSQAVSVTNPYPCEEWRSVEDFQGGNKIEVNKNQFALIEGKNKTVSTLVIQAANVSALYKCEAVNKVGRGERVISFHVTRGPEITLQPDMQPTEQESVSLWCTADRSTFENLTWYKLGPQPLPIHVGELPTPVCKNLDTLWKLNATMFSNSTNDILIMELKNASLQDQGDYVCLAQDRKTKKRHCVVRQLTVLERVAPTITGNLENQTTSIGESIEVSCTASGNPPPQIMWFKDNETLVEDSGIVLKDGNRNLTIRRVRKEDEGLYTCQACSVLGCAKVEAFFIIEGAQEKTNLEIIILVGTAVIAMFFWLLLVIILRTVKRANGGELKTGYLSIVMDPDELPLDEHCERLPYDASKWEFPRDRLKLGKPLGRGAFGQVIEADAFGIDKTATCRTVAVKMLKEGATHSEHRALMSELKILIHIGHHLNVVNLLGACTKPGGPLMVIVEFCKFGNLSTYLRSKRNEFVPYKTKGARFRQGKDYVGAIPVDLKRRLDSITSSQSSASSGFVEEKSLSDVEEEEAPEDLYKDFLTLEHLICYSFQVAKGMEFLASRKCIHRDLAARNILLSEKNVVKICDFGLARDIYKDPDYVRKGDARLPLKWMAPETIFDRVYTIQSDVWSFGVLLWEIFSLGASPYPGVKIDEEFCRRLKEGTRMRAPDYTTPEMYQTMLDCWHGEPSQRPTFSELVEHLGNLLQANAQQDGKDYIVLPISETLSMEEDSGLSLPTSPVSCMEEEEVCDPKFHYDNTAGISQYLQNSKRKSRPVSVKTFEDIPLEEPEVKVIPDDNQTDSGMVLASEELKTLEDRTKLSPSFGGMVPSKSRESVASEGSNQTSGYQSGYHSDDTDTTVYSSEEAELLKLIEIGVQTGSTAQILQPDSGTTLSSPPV
Procedure: NIH3T3 cells expressing the full length KDR receptor were grown in DMEM (Life Technologies, Inc., Grand Island, NY) supplemented with 10% newborn calf serum, low glucose, 25 mM /L sodium pyruvate, pyridoxine hydrochloride and 0.2 mg/ ml of G418 (Life Technologies Inc., Grand Island, NY). The cells were maintained in collagen I-coated T75 flasks (Becton Dickinson Labware, Bedford, MA) in a humidified 5% CO2 atmosphere at 37°C.
Fifteen thousand cells were plated into each well of a collagen I-coated 96-well plate in the DMEM growth medium. Six hours later, the cells were washed and the medium was replaced with DMEM without serum. After overnight culture to quiesce the cells, the medium was replaced by Dulbecco's phosphate-buffered saline (Life Technologies Inc., Grand Island, NY) with 0.1% bovine albumin (Sigma Chemical Co., St Louis, MO). After adding various concentrations (0-300 nM) of test compounds to the cells in 1% final concentration of DMSO, the cells were incubated at room temperature for 30 minutes. The cells were then treated with VEGF (30 ng / ml) for 10 minutes at room temperature. Following VEGF stimulation, the buffer was removed and the cells were lysed by addition of 150 µl of extraction buffer (50 mM Tris, pH 7.8, supplemented with 10% glycerol, 50 mM BGP, 2 mM EDTA, 10 mM NaF, 0.5 mM NaVO4, and 0.3% TX-100) at 4°C for 30 minutes.
To assess receptor phosphorylation, 100 microliters of each cell lysate was added to the wells of an ELISA plate precoated with 300 ng of antibody C20 (Santa Cruz Biotechnology, Inc., Santa Cruz , CA). Following a 60-minute incubation, the plate was washed and bound KDR was probed for phosphotyrosine using an anti-phosphotyrosine mAb clone 4G10 (Upstate Biotechnology, Lake Placid, NY). The plate was washed and wells were incubated with anti-mouse IgG/HRP conjugate (Amersham International plc, Buckinghamshire, England) for 60 minutes. Wells were washed and phosphotyrosine was quantitated by addtion of 100 µl per well of 3,3',5,5' tetramethylbenzidine (Kirkegaard and Perry, TMB Microwell 1 Component peroxidase substrate) solution. Color development was arrested by the addition of 100 µl 1% HCl based stop solution (Kirkegaard and Perry, TMB 1 Component Stop Solution).
Optical densities (OD) were determined spectrophotometrically at 450 nm in a 96-well plate reader (SpectraMax 250, Molecular Devices). Background (no VEGF added) OD values were subtracted from all ODs and percent inhibition was calculated according to the equation: % Inhibition =((OD(VEGF control) - OD(with test compound)) X 100)/(OD(VEGF control) - OD(no VEGF added)) [formula]
IC50s were determined with a least squares analysis program using compound concentration versus percent inhibition. Compounds that have IC50 < 20 nM in this assay include those of Examples 2, 6, 7, 11, 15 and 16. Compounds that have IC50 values between 20 nM and 50 nM include those of examples 1, 4, 5, 8, 10, 12, 13 and 14. Those that have measured IC50 values > 50 nM include those of examples 9 and 21.

[2] = test system: SK-MEL2 human tumor cells that were transfected with a plasmid containing the murine VEGF gene; assay: Matrigel Angiogenesis Model (hemoglobin content of Matrigel plugs); format: in vivo, Mice; details: 30, 100 and 300 mg/kg po sid; 12 days post-implantation; vs. vehicle control animals
Procedure: Preparation of Matrigel Plugs and in vivo Phase: Matrigel® (Collaborative Biomedical Products, Bedford, MA) is a basement membrane extract from a murine tumor composed primarily of laminin, collagen IV and heparan sulfate proteoglycan. It is provided as a sterile liquid at 4° C, but rapidly forms a solid gel at 37° C.
Liquid Matrigel at 4° C was mixed with SK-MEL2 human tumor cells that were transfected with a plasmid containing the murine VEGF gene with a selectable marker. Tumor cells were grown in vitro under selection and cells were mixed with cold liquid Matrigel at a ratio of 2 X 10^6 per 0.5 ml. […]
Optical densities were determined spectrophotometrically at 600 nm in a 96-well plate reader, SpectraMax 250 Microplate Spectrophotometer System (Molecular Devices, Sunnyvale, CA). Background Lysis Buffer readings were subtracted from all wells.
Total sample hemoglobin content was calculated according to the following equation: Total Hemoglobin = (Sample Lysate Volume) x (Hemoglobin Concentration) [formula]
The average Total Hemoglobin of Matrigel samples without cells was subtracted from each Total Hemoglobin Matrigel sample with cells. Percent inhibition was calculated according to the following equation: % Inhibition =((Average Total Hemoglobin Drug-Treated Tumor Lysates) X 100)/((Average Total Hemoglobin Non-Treated Tumor Lysates)) [formula]

pIC50 [1]: > 7.70
Structure (SMILES): NC(=O)c1cc(Cc2nnc(Nc3ccc(Cl)cc3)c3ccccc23)ccn1 [Example 2, 4-[4-(4-Chlorophenylamino)phthalazin-1-ylmethyl]pyridin-2-yl carboxylic acid amide]
inhibition of total hemoglobin content of the Matrigel samples [2]: > 50%
